Each structure is given as a SMILES string.

A word on the IC50: it is the point on the concentration scale where inhibition reaches its midpoint.

TRKA, sequence (P04629 441-796): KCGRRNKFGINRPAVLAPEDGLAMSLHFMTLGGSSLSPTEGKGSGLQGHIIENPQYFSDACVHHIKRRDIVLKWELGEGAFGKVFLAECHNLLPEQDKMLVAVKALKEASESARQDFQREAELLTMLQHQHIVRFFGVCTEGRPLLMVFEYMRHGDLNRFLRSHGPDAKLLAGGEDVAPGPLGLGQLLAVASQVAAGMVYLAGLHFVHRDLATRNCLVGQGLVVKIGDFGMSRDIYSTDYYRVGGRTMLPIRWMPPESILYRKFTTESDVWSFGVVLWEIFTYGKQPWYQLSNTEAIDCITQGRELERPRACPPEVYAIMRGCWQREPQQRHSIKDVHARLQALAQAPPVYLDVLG

For the assay, the target named is TRKA (Homo sapiens (Human), UniProt P04629). Kind of assay: Isolated TRK enzyme assay (HTRF KinEASE-TK), PV3144 TrkA enzyme assay. To be noted: arithmetic mean where more than one reading. It is filed as biochemical. Summed up:
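His-tagged TrkA cytoplasmic domain preactivated with ATP 20 min, then with compound 20 min at room temperature before 1 µM final biotin-TK substrate; HTRF 665/620 nm read.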
Turning to `CC(C)n1cc(C(=O)c2ccnc(NC(=O)Cc3coc(C4CC4)n3)c2)c2cnccc21` [Example 189, 2-(2-cyclopropyl-1,3-oxazol-4-yl)-N-(4-{[1-(propan-2-yl)-1H-pyrrolo[3,2-c]pyridin-3-yl]carbonyl}pyridin-2-yl)acetamide], the IC50 was found to be 13.6 nM. `CC(C)n1cc(C(=O)c2cncc(NC(=O)Cn3cc(Cl)cn3)c2)c2cnccc21` [Example 127, 2-(4-chloro-1H-pyrazol-1-yl)-N-(5-{[1-(propan-2-yl)-1H-pyrrolo[3,2-c]pyridin-3-yl]carbonyl}pyridin-3-yl)acetamide]: half-maximal inhibition (IC50) was put at 41.8 nM.

Molecule `CC(C)n1cc(C(=O)c2ccnc(NC(=O)c3cccc(OC(F)(F)F)c3)c2)c2cnccc21` [Example 173, N-(4-{[1-(propan-2-yl)-1H-pyrrolo[3,2-c]pyridin-3-yl]carbonyl}pyridin-2-yl)-3-(trifluoromethoxy)-benzamide] showed a 50% inhibitory concentration (IC50) of 3.85 nM.

The molecule `CC(C)n1cc(C(=O)c2cncc(NC(=O)Cn3ccc(C4CC4)n3)c2)c2cnccc21` [Example 26, 2-(3-cyclopropyl-1H-pyrazol-1-yl)-N-(5-{[1-(propan-2-yl)-1H-pyrrolo[3,2-c]pyridin-3-yl]carbonyl}pyridin-3-yl)acetamide] came in with an IC50 of 108 nM. The molecule `CC(C)n1cc(C(=O)c2cncc(NC(=O)Cc3ccc(Cl)cn3)c2)c2cnccc21` [Example 22, 2-(5-chloropyridin-2-yl)-N-(5-{[1-(propan-2-yl)-1H-pyrrolo[3,2-c]pyridin-3-yl]carbonyl}pyridin-3-yl)acetamide] showed an IC50 of 9.64 nM. Turning to `CC(C)(CO)n1cc(C(=O)c2cncc(NC(=O)Cc3ccc(Cl)cn3)c2)c2cncc(F)c21` [Example 3, 2-(5-Chloro-pyridin-2-yl)-N-{5-[7-fluoro-1-(2-hydroxy-1,1-dimethyl-ethyl)-1H-pyrrolo[3,2-c]pyridine-3-carbonyl]-pyridin-3-yl}-acetamide], the half-inhibitory concentration (IC50) stood at 7.85 nM. In turn, `Cc1nc(C)c(CC(=O)Nc2cc(C(=O)c3cn(C(C)C)c4ccncc34)ccn2)s1` [Example 167, 2-(2,4-dimethyl-1,3-thiazol-5-yl)-N-(4-{[1-(propan-2-yl)-1H-pyrrolo[3,2-c]pyridin-3-yl]carbonyl}pyridin-2-yl)acetamide] came in with an IC50 of 181 nM. For `CC(CO)n1cc(C(=O)c2cncc(NC(=O)Cn3ccc(C4CC4)n3)c2)c2cncc(F)c21` (single isomer, unassigned) [Example 215, 2-(3-cyclopropyl-1H-pyrazol-1-yl)-N-(5-{[7-fluoro-1-(1-hydroxypropan-2-yl)-1H-pyrrolo[3,2-c]pyridin-3-yl]carbonyl}pyridin-3-yl)acetamide], the IC50 turned out to be 62 nM. The same measure for `CC(C)n1cc(C(=O)c2ccnc(NC(=O)Cn3cncn3)c2)c2cnccc21` [Example 193, N-(4-{[1-(propan-2-yl)-1H-pyrrolo[3,2-c]pyridin-3-yl]carbonyl}pyridin-2-yl)-2-(1H-1,2,4-triazol-1-yl)acetamide]: 10100 nM; for `CC(CO)n1cc(C(=O)c2cncc(NC(=O)Cc3ccc(C#N)cc3)c2)c2cncc(F)c21` (single isomer, unassigned) [Example 213, 2-(4-cyanophenyl)-N-(5-{[7-fluoro-1-(1-hydroxypropan-2-yl)-1H-pyrrolo[3,2-c]pyridin-3-yl]carbonyl}pyridin-3-yl)acetamide]: 252 nM; for `CC(CO)n1cc(C(=O)c2cncc(NC(=O)Cc3ccc(C(F)(F)F)cc3)c2)c2cnccc21` (single isomer, unassigned) [Example 35, N-(5-{[1-(1-hydroxypropan-2-yl)-1H-pyrrolo[3,2-c]pyridin-3-yl]carbonyl}pyridin-3-yl)-2-[4-(trifluoromethyl)phenyl]acetamide]: 87.9 nM. For `CC(C)n1cc(C(=O)c2cncc(NC(=O)Cc3ncccn3)c2)c2cnccc21` [Example 119, N-(5-{[1-(propan-2-yl)-1H-pyrrolo[3,2-c]pyridin-3-yl]carbonyl}pyridin-3-yl)-2-(pyrimidin-2-yl)acetamide], the midpoint of inhibition, the IC50, lay at 4900 nM. On to `O=C(Cc1ccccc1OC(F)(F)F)Nc1cc(C(=O)c2cn(CCO)c3ccncc23)ccn1` [Example 143, N-(4-{[1-(2-hydroxyethyl)-1H-pyrrolo[3,2-c]pyridin-3-yl]carbonyl}pyridin-2-yl)-2-[2-(trifluoromethoxy)phenyl]acetamide], for which the IC50 worked out at 986 nM. In the case of `Cc1cc(C)n(CC(=O)Nc2cncc(C(=O)c3cn(C(C)C)c4ccncc34)c2)n1` [Example 131, 2-(3,5-dimethyl-1H-pyrazol-1-yl)-N-(5-{[1-(propan-2-yl)-1H-pyrrolo[3,2-c]pyridin-3-yl]carbonyl}pyridin-3-yl)acetamide], the midpoint of inhibition, the IC50, lay at 92.8 nM. In turn, `CC(C)(CO)n1cc(C(=O)c2cncc(NC(=O)Cc3ccc(Cl)cn3)c2)c2cnccc21` [Example 8, 2-(5-Chloro-pyridin-2-yl)-N-{5-[1-(2-hydroxy-1,1-dimethyl-ethyl)-1H-pyrrolo[3,2-c]pyridine-3-carbonyl]-pyridin-3-yl}-acetamide] displayed an IC50 of 38.5 nM. Next, `CC(C)n1cc(C(=O)c2cncc(NC(=O)Cc3ccc(F)cc3)c2)c2cnccc21` [Example 115, 2-(4-fluorophenyl)-N-(5-{[1-(propan-2-yl)-1H-pyrrolo[3,2-c]pyridin-3-yl]carbonyl}pyridin-3-yl)acetamide]: 42 nM; `CC(CO)n1cc(C(=O)c2cncc(NC(=O)Cn3cc(C(F)(F)F)nn3)c2)c2cnccc21` (single isomer, unassigned) [Example 69, N-(5-{[1-(1-hydroxypropan-2-yl)-1H-pyrrolo[3,2-c]pyridin-3-yl]carbonyl}pyridin-3-yl)-2-[4-(trifluoromethyl)-1H-1,2,3-triazol-1-yl]acetamide]: 77.6 nM. `Cc1cc(C(F)(F)F)nn1CC(=O)Nc1cncc(C(=O)c2cn(C(C)CO)c3ccncc23)c1` (single isomer, unassigned) [Example 77, N-(5-{[1-(1-hydroxypropan-2-yl)-1H-pyrrolo[3,2-c]pyridin-3-yl]carbonyl}pyridin-3-yl)-2-[5-methyl-3-(trifluoromethyl)-1H-pyrazol-1-yl]acetamide]: the half-inhibitory concentration (IC50) came to 33.7 nM. As to `CC(C)n1ncc(CC(=O)Nc2cncc(C(=O)c3cn(C(C)CO)c4ccncc34)c2)c1C(F)(F)F` (single isomer, unassigned) [Example 64, N-(5-{[1-(1-hydroxypropan-2-yl)-1H-pyrrolo[3,2-c]pyridin-3-yl]carbonyl}pyridin-3-yl)-2-[1-(propan-2-yl)-5-(trifluoromethyl)-1H-pyrazol-4-yl]acetamide], the concentration for half-maximal inhibition (IC50) came to 105 nM. `Cc1cc(CC(=O)Nc2cncc(C(=O)c3cn(C(C)C)c4ccncc34)c2)[nH]n1` [Example 136, 2(3-methyl-1H-pyrazol-5-yl)-N-(5-{[1-(propan-2-yl)-1H-pyrrolo[3,2-c]pyridin-3-yl]carbonyl}pyridin-3-yl)acetamide] yielded an IC50 of 268 nM. Regarding `CC(C)n1cc(C(=O)c2ccnc(NC(=O)Cn3nccn3)c2)c2cnccc21` [Example 190, N-(4-{[1-(propan-2-yl)-1H-pyrrolo[3,2-c]pyridin-3-yl]carbonyl}pyridin-2-yl)-2-(2H-1,2,3-triazol-2-yl)acetamide], the 50% inhibitory concentration (IC50) stood at 775 nM. `O=C(Cc1ccc(F)cc1F)Nc1cc(C(=O)c2cn(C3COC3)c3ccncc23)ccn1` [Example 198, 2-(2,4-difluorophenyl)-N-(4-{[1-(oxetan-3-yl)-1H-pyrrolo[3,2-c]pyridin-3-yl]carbonyl}pyridin-2-yl)acetamide] yielded an IC50 of 105 nM.

In turn, `CC(C)n1cc(C(=O)c2cncc(NC(=O)Cc3ccc(F)cn3)c2)c2cnccc21` [Example 23, 2-(5-fluoropyridin-2-yl)-N-(5-{[1-(propan-2-yl)-1H-pyrrolo[3,2-c]pyridin-3-yl]carbonyl}pyridin-3-yl)acetamide] registered a 50% inhibitory concentration (IC50) of 192 nM.

`COCc1nc(CC(=O)Nc2cncc(C(=O)c3cn(C(C)C)c4ccncc34)c2)c(C2CC2)o1` [Example 39, 2-[5-cyclopropyl-2-(methoxymethyl)-1,3-oxazol-4-yl]-N-(5-{[1-(propan-2-yl)-1H-pyrrolo[3,2-c]pyridin-3-yl]carbonyl}pyridin-3-yl)acetamide] yielded a 50% inhibitory concentration (IC50) of 181 nM. In the case of `CC(CO)n1cc(C(=O)c2cncc(NC(=O)Cc3ccc(F)cn3)c2)c2cnccc21` (single isomer, unassigned) [Example 68, 2-(5-fluoropyridin-2-yl)-N-(5-{[1-(1-hydroxypropan-2-yl)-1H-pyrrolo[3,2-c]pyridin-3-yl]carbonyl}pyridin-3-yl)acetamide], the midpoint of inhibition, the IC50, lay at 201 nM. In the case of `CC(C)c1cn(CC(=O)Nc2cncc(C(=O)c3cn(C(C)CO)c4ccncc34)c2)nn1` (single isomer, unassigned) [Example 70, N-(5-{[1-(1-hydroxypropan-2-yl)-1H-pyrrolo[3,2-c]pyridin-3-yl]carbonyl}pyridin-3-yl)-2-[4-(propan-2-yl)-1H-1,2,3-triazol-1-yl]acetamide], the 50% inhibitory concentration (IC50) was 65.6 nM. On to `CC(C)c1cn(CC(=O)Nc2cc(C(=O)c3cn(CCO)c4ccncc34)ccn2)nn1` [Example 159, N-(4-{[1-(2-hydroxyethyl)-1H-pyrrolo[3,2-c]pyridin-3-yl]carbonyl}pyridin-2-yl)-2-[4-(propan-2-yl)-1H-1,2,3-triazol-1-yl]acetamide], for which the IC50 was determined as 271 nM. For the molecule `CC(C)n1ncc(CC(=O)Nc2cncc(C(=O)c3cn(C(C)CO)c4ccncc34)c2)c1C(F)(F)F` (single isomer, unassigned) [Example 71, N-(5-{[1-(1-hydroxypropan-2-yl)-1H-pyrrolo[3,2-c]pyridin-3-yl]carbonyl}pyridin-3-yl)-2-[1-(propan-2-yl)-5-(trifluoromethyl)-1H-pyrazol-4-yl]acetamide], the 50% inhibitory concentration (IC50) turned out to be 149 nM. As for `CC(C)n1cc(C(=O)c2ccnc(NC(=O)Cc3ccc(C#N)c(C(F)(F)F)c3)c2)c2cnccc21` [Example 233, 2-[4-cyano-3-(trifluoromethyl)phenyl]-N-(4-{[1-(propan-2-yl)-1H-pyrrolo[3,2-c]pyridin-3-yl]carbonyl}pyridin-2-yl)acetamide], the IC50 turned out to be 24.4 nM.
